In US20110280940A1, “Di-Vanilloyl And Tri-Vanilloyl Derivatives For Use In Anti-Cancer Therapy” (priority 2008, published 2011):

Legend:
[1] = target: T1, CDK5/p25 (Homo sapiens, UniProt Q00535); experiment: Kinase activity assay, CDK5; type: biochemical; conditions: 10 μM, 1% DMSO, 15 μM ATP; residual activity
T1 construct: made in house
Protocol: Buffer A: 10 mM MgCl2, 1 mM EGTA, 1 mM DTT, 25 mM Tris-HCl pH 7.5, 50 μg heparin/ml. Buffer C: 60 mM β-glycerophosphate, 15 mM p-nitrophenylphosphate, 25 mM Mops (pH 7.2), 5 mM EGTA, 15 mM MgCl2, 1 mM DTT, 1 mM sodium vanadate, 1 mM phenyl phosphate.
Kinase activities were assayed in Buffer A or C, at 30° C., at a final ATP concentration of 15 μM. Blank values were subtracted and activities expressed in % of the maximal activity, i.e. in the absence of inhibitors. Controls were performed with appropriate dilutions of DMSO.
CDK1/cyclin B (M phase starfish oocytes, native), CDK2/cyclin A, CDK2/cyclin E, CDK5/p25 and CDK7/cyclin H (human, recombinant) were prepared as previously described (Leclerc et al., 2001, J. Biol. Chem. 2001, 276, 251-260; Bach et al., 2005, J Biol Chem 280: 31208-31219). Their kinase activity was assayed in buffer C, with 1 mg histone H1/ml, in the presence of 15 μM [gamma-^33P] ATP (3,000 Ci/mmol; 10 mCi/ml) in a final volume of 30 μl. After 30 min incubation at 30° C., 25 μl aliquots of supernatant were spotted onto 2.5×3 cm pieces of Whatman P81 phosphocellulose paper, and, 20 sec later, the filters were washed five times (for at least 5 min each time) in a solution of 10 ml phosphoric acid/liter of water. The wet filters were counted in the presence of 1 ml ACS (Amersham) scintillation fluid.

[2] = tested on: Aurora kinases; experiment: Kinase inhibition profile of DLT11 at 20 μM, Aurora kinases; type: biochemical, human; conditions: 20 μM (FIG. 3)
Protocol: The kinase inhibition profile of DLT11 at 20 μM was determined using 250 protein kinases. Residual activity values were measured by testing each compound at one concentration in duplicate in each kinase assay. A radiometric protein kinase assay (33 PanQinase®Activity Assay) was used for measuring the kinase activity of 250 protein kinases. All kinase assays were performed in 96-well flashPlates™ from Perkin Elmer (Boston, Mass., USA) in a 50 μl reaction volume. The reaction cocktail was pipetted in 4 steps in the following order: • 10 μl of non-radioactive ATP solution (in H2O) • 25 μl of assay buffer/[γ-33P]-ATP mixture • 5 μl of test sample in 10% DMSO • 10 μl of enzyme/substrate mixture […]
Incorporation of ^33Pi (counting of “cpm”) was determined with a microplate scintillation counter (Microbeta, Wallac).
For each kinase, the median value of the cpm of three wells with complete reaction cocktails, but without kinase, was defined as “low control” (n=3). This value reflects unspecific binding of radioactivity to the plate in the absence of protein kinase but in the presence of the substrate. […] The residual activity (in %) for each compound well was calculated by using the following formula: Res. Activity (%)=100×[(cpm of compound−low control)/(high control−low control)]

T1 sequence (Q00535 whole entry): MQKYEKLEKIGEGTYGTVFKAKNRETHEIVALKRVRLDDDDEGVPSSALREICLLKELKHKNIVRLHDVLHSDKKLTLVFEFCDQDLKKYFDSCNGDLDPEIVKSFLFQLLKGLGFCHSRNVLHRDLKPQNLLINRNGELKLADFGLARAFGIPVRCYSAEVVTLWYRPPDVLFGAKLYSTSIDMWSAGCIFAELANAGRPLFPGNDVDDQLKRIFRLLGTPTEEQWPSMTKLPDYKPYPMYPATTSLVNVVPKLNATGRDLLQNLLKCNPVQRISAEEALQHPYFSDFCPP
T1 sequence (Q15078 99-307 partner limits assumed): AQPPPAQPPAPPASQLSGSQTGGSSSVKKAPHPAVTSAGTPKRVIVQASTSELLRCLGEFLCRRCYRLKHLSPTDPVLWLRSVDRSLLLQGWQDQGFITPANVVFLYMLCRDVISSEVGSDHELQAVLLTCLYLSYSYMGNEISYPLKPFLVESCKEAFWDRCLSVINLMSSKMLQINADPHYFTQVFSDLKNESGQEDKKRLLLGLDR

inhibition of 2 Aurora kinases [2] | SMILES | % ENZYMATIC ACTIVITY, CDK5 [1]
 | COc1cc(C(=O)OCCOC(=O)c2ccc(O)c(OC)c2)ccc1O [DLT1, Ethane-1,2-diyl bis-(4-hydroxy-3-methoxybenzoate)] | 87%
more than 80% | COc1cc(C(=O)OCCCCCCOC(=O)c2ccc(O)c(OC)c2)ccc1O [DLT11, Hexane-1,6-diyl bis-(4-hydroxy-3-methoxybenzoate)] | 
